Molecules are shown by their SMILES.

The subject of this assay is spontaneously hypertensive rats (SHR). Description: Antihypertensive effect, oral administration to spontaneously hypertensive rats (mean blood pressure and heart rate). In kind it is in vivo, rat. To be noted: SHR, p.o.; for Changes in average blood pressures after administration: Table 3; for Change in blood pressure after 3 hrs. from administration: Table 1. How it is done: Antihypertensive effect was determined by oral administration of the test compound to spontaneously hypertensive rats (hereinafter referred to as SHR).
These SHR were anesthetized with ether and chronically embedded with a cannula for determination of blood pressure so that one end of the said cannula may be placed in abdominal aorta and the other end thereof may be projected out of dorsal neck. When rats regained their body weight before operation in more than 1 week from operation, the test compound was given. Determination was made by measuring a mean blood pressure and a heart rate under unanesthetized and unrestrained conditions with the cannula connected to an electronic recording system. The test compound was suspended in a 1% tragacanth gum solution to make up a concentration so as to be a volume of 5 ml./kg. and then orally given.

As to `COc1cc2nc(N3CCN(C(=O)C(C)=Cc4cccs4)CC3)nc(N)c2cc1OC` [compound 39, 2-{4-[2-Methyl-3-(thiophen-2-yl)-acryloyl]-piperazin-1-yl}-4-amino-6,7-dimethoxyquinazoline], the “Changes in average blood pressures after administration” value (from here on “Changes in average blood pressures”) runs as follows: (1 mg./kg., 1 hr.) -18 mmHg; (1 mg./kg., 3 hrs.) -12 mmHg; (1 mg./kg., 6 hrs.) -13 mmHg; (1 mg./kg., 24 hrs.) 3 mmHg; (3 mg./kg., 1 hr.) -65 mmHg; (3 mg./kg., 3 hrs.) -27 mmHg. The “Changes in average blood pressures” value runs as follows: (3 mg./kg., 6 hrs.) -35 mmHg; (3 mg./kg., 24 hrs.) -15 mmHg.
Take `COc1cc2nc(N3CCN(C(=O)C=Cc4ccc(OC)c(OC)c4OC)CC3)nc(N)c2cc1OC` [compound 14, 2-[4-(2,3,4-Trimethoxycinnamoyl)-piperazin-1-yl]-4-amino-6,7-dimethoxyquinazoline]: the “Change in blood pressure after 3 hrs. from administration” value (shortened to “Change in blood pressure”) (10 mg./kg., 3 hrs.) is -22 mmHg.
As to `COc1cc2nc(N3CCN(C(=O)C=Cc4ccoc4)CC3)nc(N)c2cc1OC` [compound 29, 2-{4-[3-(Furan-3-yl)-acryloyl]-piperazin-1-yl]-4-amino-6,7-dimethoxyquinazoline], the “Changes in average blood pressures” value (1 mg./kg., 1 hr.) is on record as -25 mmHg; the “Changes in average blood pressures” value (1 mg./kg., 3 hrs.) is -28 mmHg; the “Changes in average blood pressures” value (1 mg./kg., 6 hrs.) is -37 mmHg; the “Changes in average blood pressures” value (1 mg./kg., 24 hrs.) is given as -17 mmHg.
On to `COc1cc2nc(N3CCN(C(=O)C=Cc4ccc(C)s4)CC3)nc(N)c2cc1OC` [compound 38, 2-{4-[3-(5-Methylthiophen-2-yl)-acryloyl]-piperazin-1-yl}-4-amino-6,7-dimethoxyquinazoline], for which the “Changes in average blood pressures” value is, setting by setting: (3 mg./kg., 1 hr.) -18 mmHg; (3 mg./kg., 3 hrs.) -27 mmHg; (3 mg./kg., 6 hrs.) -18 mmHg; (3 mg./kg., 24 hrs.) -2 mmHg.
Regarding `COc1cc2nc(N3CCN(C(=O)C=Cc4cccc(C(F)(F)F)c4)CC3)nc(N)c2cc1OC` [compound 22, 2-[4-(3-Trifluoromethylcinnamoyl)-piperazin-1-yl]-4-amino-6,7-dimethoxyquinazoline], where the note is “10 mg./kg., 3 hrs.”, the “Change in blood pressure” value was -10 mmHg.
Regarding `COc1cc2nc(N3CCN(C(=O)C=Cc4cccnc4)CC3)nc(N)c2cc1OC` [compound 44, 2-{4-[3-(Pyridin-3-yl)-acryloyl]-piperazin-1-yl}-4-amino-6,7-dimethoxyquinazoline], the “Changes in average blood pressures” value runs as follows: (3 mg./kg., 1 hr.) -28 mmHg; (3 mg./kg., 3 hrs.) -15 mmHg; (3 mg./kg., 6 hrs.) -25 mmHg; (3 mg./kg., 24 hrs.) 3 mmHg.
Regarding `COc1cc2nc(N3CCN(C(=O)C=Cc4cccc(C)c4)CC3)nc(N)c2cc1OC` [compound 3, 2-[4-(3-Methylcinnamoyl)-piperazin-1-yl]-4-amino-6,7-dimethoxyquinazoline], the “Change in blood pressure” value (10 mg./kg., 3 hrs.) is given as -35 mmHg.
On the same count and under the same terms, next, `COc1cc2nc(N3CCN(C(=O)C=Cc4ccccc4C)CC3)nc(N)c2cc1OC` [compound 2, 2-[4-(2-Methylcinnamoyl)-piperazin-1-yl]-4-amino-6,7-dimethoxyquinazoline]: -43 mmHg.
Consider `COc1cc2nc(N3CCN(C(=O)C(C)=Cc4ccco4)CC3)nc(N)c2cc1OC` [compound 31, 2-{4-[2-Methyl-3-(furan-2-yl)-acryloyl]-piperazin-1-yl}-4-amino-6,7-dimethoxyquinazoline], for which the “Changes in average blood pressures” value was -22 mmHg (1 mg./kg., 1 hr.); -23 mmHg (1 mg./kg., 3 hrs.); -24 mmHg (1 mg./kg., 6 hrs.); -6 mmHg (1 mg./kg., 24 hrs.).
As for `COc1cc2nc(N3CCN(C(=O)C=Cc4cccs4)CC3)nc(N)c2cc1OC` [compound 35, 2-{4-[3-(Thiophen-2-yl)-acryloyl]-piperazin-1-yl}-4-amino-6,7-dimethoxyquinazoline], the “Changes in average blood pressures” value (1 mg./kg., 1 hr.) is recorded as -27 mmHg; the “Changes in average blood pressures” value (1 mg./kg., 3 hrs.) is -25 mmHg; the “Changes in average blood pressures” value (1 mg./kg., 6 hrs.) is -25 mmHg; the “Changes in average blood pressures” value (1 mg./kg., 24 hrs.) is on record as 0 mmHg; the “Changes in average blood pressures” value (3 mg./kg., 1 hr.) is listed as -45 mmHg; the “Changes in average blood pressures” value (3 mg./kg., 3 hrs.) is -27 mmHg. Also, the “Changes in average blood pressures” value is, setting by setting: (3 mg./kg., 6 hrs.) -42 mmHg; (3 mg./kg., 24 hrs.) -2 mmHg.
For the compound `COc1cc2nc(N3CCN(C(=O)C=Cc4ccc(N(C)C)cc4)CC3)nc(N)c2cc1OC` [compound 23, 2-[4-(4-Dimethylaminocinnamoyl)-piperazin-1-yl]-4-amino-6,7-dimethoxyquinazoline], under “10 mg./kg., 3 hrs.”, the “Change in blood pressure” value was -15 mmHg.
In the case of `COc1cc2nc(N3CCN(C(=O)C=Cc4ccncc4)CC3)nc(N)c2cc1OC` [compound 45, 2-{4-[3-(Pyridin-4-yl)-acryloyl]-piperazin-1-yl}-4-amino-6,7-dimethoxyquinazoline], the “Changes in average blood pressures” value runs as follows: (3 mg./kg., 1 hr.) -9 mmHg; (3 mg./kg., 3 hrs.) -5 mmHg; (3 mg./kg., 6 hrs.) -12 mmHg; (3 mg./kg., 24 hrs.) 0 mmHg.
On to `COc1cc2nc(N3CCN(C(=O)C=Cc4ccc(Br)cc4)CC3)nc(N)c2cc1OC` [compound 21, 2-[4-(4-Bromocinnamoyl)-piperazin-1-yl]-4-amino-6,7-dimethoxyquinazoline], for which, where the note is “10 mg./kg., 3 hrs.”, the “Change in blood pressure” value was -22 mmHg.
With `COc1cc2nc(N3CCN(C(=O)C=Cc4ccccn4)CC3)nc(N)c2cc1OC` [compound 43, 2-{4-[3-(Pyridin-2-yl)-acryloyl]-piperazin-1-yl}-4-amino-6,7-dimethoxyquinazoline], the “Changes in average blood pressures” value by setting is: (3 mg./kg., 1 hr.) -40 mmHg; (3 mg./kg., 3 hrs.) -22 mmHg; (3 mg./kg., 6 hrs.) -30 mmHg; (3 mg./kg., 24 hrs.) 8 mmHg; (10 mg./kg., 1 hr.) -23 mmHg; (10 mg./kg., 3 hrs.) -22 mmHg. Moreover, the “Changes in average blood pressures” value is, setting by setting: (10 mg./kg., 6 hrs.) -18 mmHg; (10 mg./kg., 24 hrs.) -3 mmHg.
Consider `COc1cccc(C=CC(=O)N2CCN(c3nc(N)c4cc(OC)c(OC)cc4n3)CC2)c1` [compound 7, 2-[4-(3-Methoxycinnamoyl)-piperazin-1-yl]-4-amino-6,7-dimethoxyquinazoline], for which the “Change in blood pressure” value (10 mg./kg., 3 hrs.) is recorded as -18 mmHg.
Consider `COc1cc2nc(N3CCCN(C(=O)C=Cc4cccs4)CC3)nc(N)c2cc1OC` [compound 47, 2-{4-[3-(Thiophen-2-yl)-acryloyl]-homopiperazin-1-yl}-4-amino-6,7-dimethoxyquinazoline], for which the “Changes in average blood pressures” value was -22 mmHg (3 mg./kg., 1 hr.); -13 mmHg (3 mg./kg., 3 hrs.); -17 mmHg (3 mg./kg., 6 hrs.); 2 mmHg (3 mg./kg., 24 hrs.).

Values taken from patent US4189484A, “Antihypertensive quinazoline derivatives” (priority 1977, dated 1980).
